Patent US9164105B2, “Pancreatic cancer biomarker using the characteristics of pancreatic cancer stem cells, and use thereof” (INDUSTRY-ACADEMIC COOPERATION FOUNDATION, YONSEI UNIVERSITY, priority 2012, dated 2015)

What was measured:
Format in all cases: cell-based, human
GLRX3 = GLRX3 mRNA and protein expression in GLRX3 knock-down cell line (PCR and western blot); settings: Hpac cell line transfected with shRNA, puromycin-selected clones, vs control shRNA
Experimental: (§1) Selection marker was puromycin ([…]).

Hpac cell line [1] = experiment: Doubling time assay (cell proliferation) of GLRX3 knock-down cell line; settings: GLRX3 k/d cell line compared to the control, counted for 5 days
Experimental: as §1

Hpac cell line [2] = experiment: Wound-healing assay of GLRX3 knock-down cell line; settings: GLRX3 k/d cell line compared to the control
Experimental: as §1

Hpac cell line [3] = experiment: Sphere culture of GLRX3 knock-down cell line; settings: sphere-cultured for 7 days, vs control cell line
Experimental: (§2) For sphere formation, pancreatic cancer cell lines were plated 1000 cell/mL in serum-free DMEM/F12 supplemented with EGF (10 ng/mL, R&D Systems Inc., Minneapolis, Minn.), bFGF ([…], R&D Systems Inc.), 1 ITS (insulin transferring selenium, Gibco) and 0.5% FBS on Corning Costar ultra-low attached 6-well culture dishes (Corning Inc., Corning, N.Y., US), and cultured for 7-10 days. The adherent cells cultured with the same media by attaching on culture plates (Nalgene Nunc Int., Rochester, N.Y.) were used as a control group.
(§3) For clonogenic assay, 0.6% agar in cell media was boiled, hardened on 24-well plate (lower layer media). The cells at density of 1000 cell/well and 0.3% agar-cell media (upper layer media) were mixed, and hardened on lower layer media. Once 0.3% upper layer media was hardened, 500 μL/well of media was added on the upper layer media. Adding the media every third day, the cells were cultured for 3-4 weeks. Afterward, the media on agar was removed, stained with crystal violet to count the number of colony.

Hpac cell line [4] = experiment: Clonogenic assay of GLRX3 knock-down cell line; settings: soft agar, 3-4 weeks, vs control cell line
Experimental: as §3

Hpac-spheres = experiment: Inhibition of sphere formation by stem cell signaling inhibitors; settings: inhibitor added into sphere culture medium, observed after 7 days
Experimental: as §2
Well-known stem cell signaling inhibitors DAPT (Calbiochem, San Diego, Calif., USA), Cyclopamine-KAAD (Calbiochem, San Diego, Calif., USA), LiCl (Sigma-Aldrich, Inc., St. Louis, Mo.), ATRA (Sigma-Aldrich, Inc., St. Louis, Mo.), OV (Sigma-Aldrich, Inc., St. Louis, Mo.) were added added into sphere culture medium, and cultured. After 7 days, sphere formation was observed.

CFAPC-1 cells = experiment: Fluorescence-Activated Cell Sorting of CD24/CD44/ESA after GLRX3 siRNA transfection; settings: 72 hours after transfection; decreased from 70.4% (control)
Experimental: To inhibit GLRX3, siRNA (invitrogen Stealth™ siRNA duplex oligoribonucleotides) to GLRX3 was used. Sense siRNA sequence was UGAGGGAGUUCUUUAGCUAACUCUG, and antisense siRNA sequence was CAGAGUUAGCUAAAGAACUCCCUCA. Med GC (invitrogen) was used as negative control siRNA. CFAPC-1 cells were transfected with GLRX3 or negative control siRNA using RNAiMAX (invtirogen, Carlsbad, Calif., US), and incubated for 72 hours. The cells were treated with accutase (Sigma-Aldrich, St. Louis, Mo.) to prepare suspensions with the same number of single cells. Afterward, the cells were stained with PE-CD24 (BD Biosciences PharMingen, San Diego, Calif.), APC-CD44 (BD Biosciences PharMingen, San Diego, Calif.) and FITC-ESA (BD Biosciences PharMingen, San Diego, Calif.). Fluorescence-Activated Cell Sorting was carried out using BD LSR II (BD Biosciences, Franklin Lakes, N.J.) and analyzed by BD FACSDiva software.

**Q.** Which results are given for “shRNA to GLRX3: shRNA plasmid to GLRX3, sequence GTGGAAATTCTTCACAAACAT (SEQ ID NO:4), used to establish the GLRX3 knock-down Hpac line (guide GTGGAAATTCTTCACAAACAT; listed as Homo sapiens)”?
**A.** Expressions of mRNA and protein of GLRX3 (GLRX3): significantly reduced; cell proliferation rate (Hpac cell line [1]): decreased; cell migration activity (Hpac cell line [2]): decreased; ability to form spheres (Hpac cell line [3]): not formed; colonies formed (viability and proliferation) (Hpac cell line [4]): fewer colonies

**Q.** CC1=C2C[C@H]3[C@@H](CC=C4CC(=O)CC[C@@]43C)[C@@H]2CC[C@]12O[C@@H]1C[C@H](C)CN(CCNC(=O)CCCCCNC(=O)CCc3ccccc3)[C@H]1[C@H]2C [KAAD, Cyclopamine-KAAD] was tested. Which “ability to form sphere in Hpac-spheres” value (Hpac-spheres) did it give?
**A.** completely inhibited or reduced

**Q.** Which “fraction of CD24+/CD44+/ESA+” value (CFAPC-1 cells) does the source give for “siRNA to GLRX3: Stealth siRNA duplex to GLRX3; sense UGAGGGAGUUCUUUAGCUAACUCUG (SEQ ID NOs:2 and 3) (chain 1 UGAGGGAGUUCUUUAGCUAACUCUG; chain 2 CAGAGUUAGCUAAAGAACUCCCUCA; listed as RNA, chemistry not given here; listed as Homo sapiens)” here?
**A.** 29.3%

**Q.** For CC1=C(/C=C/C(C)=C/C=C/C(C)=C/C(=O)O)C(C)(C)CCC1 [ATRA], which “ability to form sphere in Hpac-spheres” value (Hpac-spheres) is on record?
**A.** completely inhibited or reduced

**Q.** For [Na+].[Na+].[Na+].[O]=[V]([O-])([O-])[O-] [OV], which “ability to form sphere in Hpac-spheres” value (Hpac-spheres) is on record?
**A.** completely inhibited or reduced

**Q.** Which “ability to form sphere in Hpac-spheres” value (Hpac-spheres) does the source give for [Cl-].[Li+] [LiCl] here?
**A.** completely inhibited or reduced

**Q.** How did the “ability to form sphere in Hpac-spheres” value (Hpac-spheres) turn out when C[C@H](NC(=O)Cc1cc(F)cc(F)c1)C(=O)N[C@H](C(=O)OC(C)(C)C)c1ccccc1 [DAPT] was run?
**A.** completely inhibited or reduced
